According to the supplement of paper PMC10307832:

Tests used:
Experiment in all cases: relative viability (nuclei count vs DMSO), 5 days (fraction); higher = more cells survive
NCI-H522 = tested on: NCI-H522
Method in brief: (§1)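 Each reported value is a median over duplicate plates. It expresses relative viability: treated-well nuclei count divided by vehicle-well nuclei count. Lung cancer cell lines in 1536-well plates were dosed by pin tool a day after seeding, alone with one drug or with a fixed anchor-drug dose plus five library-drug doses (not always all listed) in √10 steps, and nuclei were counted after 5 days.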

NCI-H661 = tested on: NCI-H661
Method in brief: as §1

NCI-H1755 = tested on: NCI-H1755
Method in brief: as §1

NCI-H650 = tested on: NCI-H650
Method in brief: as §1

NCI-H596 = tested on: NCI-H596
Method in brief: as §1

NCI-H441 = tested on: NCI-H441
Method in brief: as §1

NCI-H520 = tested on: NCI-H520
Method in brief: as §1

NCI-H1355 = tested on: NCI-H1355
Method in brief: as §1

NCI-H2347 = tested on: NCI-H2347
Method in brief: as §1

NCI-H2170 = tested on: NCI-H2170
Method in brief: as §1

NCI-H3122 = tested on: NCI-H3122
Method in brief: as §1

PC-14 = tested on: PC-14
Method in brief: as §1

SK-MES-1 = tested on: SK-MES-1
Method in brief: as §1

NCI-H727 = tested on: NCI-H727
Method in brief: as §1

LCLC-103H = tested on: LCLC-103H
Method in brief: as §1

NCI-H1651 = tested on: NCI-H1651
Method in brief: as §1

SW 900 = tested on: SW 900
Method in brief: as §1

RERF-LC-KJ = tested on: RERF-LC-KJ
Method in brief: as §1

NCI-H1563 = tested on: NCI-H1563
Method in brief: as §1

LXF-289 = tested on: LXF-289
Method in brief: as §1

NCI-H1915 = tested on: NCI-H1915
Method in brief: as §1

NCI-H322M = tested on: NCI-H322M
Method in brief: as §1

NCI-H1792 = tested on: NCI-H1792
Method in brief: as §1

NCI-H460 = tested on: NCI-H460
Method in brief: as §1

Work on `Clc1ccc(Nc2nnc(Cc3ccncc3)c3ccccc23)cc1` [Vatalanib] + CCNC(=O)c1noc(-c2cc(C(C)C)c(O)cc2O)c1-c1ccc(CN2CCOCC2)cc1 [Luminespib] (partner 0.01 µM) yielded a relative viability (NCI-H522; first compound 0.04 µM) of 1.02, a relative viability (NCI-H522; first compound 0.1265 µM) of 1.23 and a relative viability (NCI-H522; first compound 0.4 µM) of 1.2. The relative viability (NCI-H522; first compound 1.265 µM) was 1.15, the relative viability (NCI-H522; first compound 4 µM) was 1.1 and the relative viability (NCI-H661; first compound 0.04 µM) was 0.887. The relative viability (NCI-H661; first compound 0.1265 µM) was 0.91, the relative viability (NCI-H661; first compound 0.4 µM) was 0.998 and the relative viability (NCI-H661; first compound 1.265 µM) was 0.89. For the same molecule, the relative viability (NCI-H661; first compound 4 µM) was 0.931, the relative viability (NCI-H1755; first compound 0.04 µM) was 0.419 and the relative viability (NCI-H1755; first compound 0.1265 µM) was 0.439. The relative viability (NCI-H1755; first compound 0.4 µM) was 0.556, the relative viability (NCI-H1755; first compound 1.265 µM) was 0.316 and the relative viability (NCI-H1755; first compound 4 µM) was 0.453. It also gave a relative viability (NCI-H650; first compound 0.04 µM) of 0.821, a relative viability (NCI-H650; first compound 0.1265 µM) of 0.628 and a relative viability (NCI-H650; first compound 1.265 µM) of 0.736. It also gave a relative viability (NCI-H650; first compound 4 µM) of 0.781, a relative viability (NCI-H596; first compound 0.04 µM) of 0.955 and a relative viability (NCI-H596; first compound 0.1265 µM) of 0.941. The relative viability (NCI-H596; first compound 0.4 µM) was 0.953, the relative viability (NCI-H596; first compound 1.265 µM) was 1.01 and the relative viability (NCI-H596; first compound 4 µM) was 1.19. For the same molecule, the relative viability (NCI-H441; first compound 0.04 µM) was 0.367, the relative viability (NCI-H441; first compound 0.1265 µM) was 0.251 and the relative viability (NCI-H441; first compound 0.4 µM) was 0.382. The relative viability (NCI-H441; first compound 1.265 µM) was 0.377, the relative viability (NCI-H441; first compound 4 µM) was 0.354 and the relative viability (NCI-H520; first compound 0.04 µM) was 0.199. It also gave a relative viability (NCI-H520; first compound 0.1265 µM) of 0.19, a relative viability (NCI-H520; first compound 0.4 µM) of 0.22 and a relative viability (NCI-H520; first compound 1.265 µM) of 0.221. The relative viability (NCI-H520; first compound 4 µM) was 0.246, the relative viability (NCI-H1355; first compound 0.04 µM) was 0.74 and the relative viability (NCI-H1355; first compound 0.1265 µM) was 0.675. For the same molecule, the relative viability (NCI-H1355; first compound 0.4 µM) was 0.748, the relative viability (NCI-H1355; first compound 1.265 µM) was 0.656 and the relative viability (NCI-H1355; first compound 4 µM) was 0.738. The relative viability (NCI-H2347; first compound 0.04 µM) was 0.416, the relative viability (NCI-H2347; first compound 0.1265 µM) was 0.425 and the relative viability (NCI-H2347; first compound 0.4 µM) was 0.254. The relative viability (NCI-H2347; first compound 1.265 µM) was 0.549, the relative viability (NCI-H2347; first compound 4 µM) was 0.509 and the relative viability (NCI-H2170; first compound 0.04 µM) was 0.79. It also gave a relative viability (NCI-H2170; first compound 0.1265 µM) of 0.644, a relative viability (NCI-H2170; first compound 0.4 µM) of 0.715 and a relative viability (NCI-H2170; first compound 1.265 µM) of 0.641. It also gave a relative viability (NCI-H2170; first compound 4 µM) of 0.692, a relative viability (NCI-H3122; first compound 0.04 µM) of 0.0962 and a relative viability (NCI-H3122; first compound 0.1265 µM) of 0.0894. For the same molecule, the relative viability (NCI-H3122; first compound 0.4 µM) was 0.0775, the relative viability (NCI-H3122; first compound 1.265 µM) was 0.0975 and the relative viability (NCI-H3122; first compound 4 µM) was 0.0766. It also gave a relative viability (PC-14; first compound 0.04 µM) of 0.155, a relative viability (PC-14; first compound 0.1265 µM) of 0.19 and a relative viability (PC-14; first compound 1.265 µM) of 0.158. It also gave a relative viability (PC-14; first compound 4 µM) of 0.149, a relative viability (SK-MES-1; first compound 0.04 µM) of 0.745 and a relative viability (SK-MES-1; first compound 0.1265 µM) of 0.845. For the same molecule, the relative viability (SK-MES-1; first compound 0.4 µM) was 1.05, the relative viability (SK-MES-1; first compound 1.265 µM) was 0.679 and the relative viability (SK-MES-1; first compound 4 µM) was 0.6. It also gave a relative viability (NCI-H727; first compound 0.04 µM) of 0.339, a relative viability (NCI-H727; first compound 0.1265 µM) of 0.289 and a relative viability (NCI-H727; first compound 0.4 µM) of 0.329. The relative viability (NCI-H727; first compound 1.265 µM) was 0.635, the relative viability (NCI-H727; first compound 4 µM) was 0.392 and the relative viability (LCLC-103H; first compound 0.04 µM) was 0.961. It also gave a relative viability (LCLC-103H; first compound 0.1265 µM) of 0.878, a relative viability (LCLC-103H; first compound 0.4 µM) of 0.967 and a relative viability (LCLC-103H; first compound 1.265 µM) of 0.969. The relative viability (LCLC-103H; first compound 4 µM) was 1, the relative viability (NCI-H1651; first compound 0.04 µM) was 0.852 and the relative viability (NCI-H1651; first compound 0.1265 µM) was 0.891. The relative viability (NCI-H1651; first compound 0.4 µM) was 0.878, the relative viability (NCI-H1651; first compound 1.265 µM) was 0.869 and the relative viability (NCI-H1651; first compound 4 µM) was 0.915. It also gave a relative viability (SW 900; first compound 0.1265 µM) of 0.178, a relative viability (SW 900; first compound 0.4 µM) of 0.224 and a relative viability (SW 900; first compound 1.265 µM) of 0.166. The relative viability (SW 900; first compound 4 µM) was 0.192, the relative viability (RERF-LC-KJ; first compound 0.04 µM) was 1.17 and the relative viability (RERF-LC-KJ; first compound 0.1265 µM) was 1.22. It also gave a relative viability (RERF-LC-KJ; first compound 0.4 µM) of 1.2, a relative viability (RERF-LC-KJ; first compound 1.265 µM) of 1.05 and a relative viability (RERF-LC-KJ; first compound 4 µM) of 1.07. For the same molecule, the relative viability (NCI-H1563; first compound 0.04 µM) was 0.493, the relative viability (NCI-H1563; first compound 0.1265 µM) was 0.539 and the relative viability (NCI-H1563; first compound 0.4 µM) was 0.519. For the same molecule, the relative viability (NCI-H1563; first compound 1.265 µM) was 0.495, the relative viability (NCI-H1563; first compound 4 µM) was 0.56 and the relative viability (LXF-289; first compound 0.04 µM) was 0.703. For the same molecule, the relative viability (LXF-289; first compound 0.1265 µM) was 0.634, the relative viability (LXF-289; first compound 0.4 µM) was 0.734 and the relative viability (LXF-289; first compound 1.265 µM) was 0.623. The relative viability (LXF-289; first compound 4 µM) was 0.633, the relative viability (NCI-H1915; first compound 0.04 µM) was 0.847 and the relative viability (NCI-H1915; first compound 0.1265 µM) was 0.7. It also gave a relative viability (NCI-H1915; first compound 0.4 µM) of 0.828, a relative viability (NCI-H1915; first compound 1.265 µM) of 0.846 and a relative viability (NCI-H1915; first compound 4 µM) of 0.758. It also gave a relative viability (NCI-H322M; first compound 0.04 µM) of 0.849, a relative viability (NCI-H322M; first compound 0.1265 µM) of 0.798 and a relative viability (NCI-H322M; first compound 0.4 µM) of 0.877. It also gave a relative viability (NCI-H322M; first compound 1.265 µM) of 0.793, a relative viability (NCI-H322M; first compound 4 µM) of 0.909 and a relative viability (NCI-H1792; first compound 0.04 µM) of 0.475. The relative viability (NCI-H1792; first compound 0.1265 µM) was 0.492, the relative viability (NCI-H1792; first compound 0.4 µM) was 0.4 and the relative viability (NCI-H1792; first compound 1.265 µM) was 0.564. It also gave a relative viability (NCI-H1792; first compound 4 µM) of 0.387, a relative viability (NCI-H460; first compound 0.04 µM) of 0.0407 and a relative viability (NCI-H460; first compound 0.1265 µM) of 0.0276. For the same molecule, the relative viability (NCI-H460; first compound 0.4 µM) was 0.0374, the relative viability (NCI-H460; first compound 1.265 µM) was 0.0261 and the relative viability (NCI-H460; first compound 4 µM) was 0.0364.
